Assay results: US20220220152A1, “BIVALENT ANTAGONISTS OF INHIBITORS OF APOPTOSIS PROTEINS” (Hepagene Therapeutics (HK) Limited, priority 2019, published 2022)
pIC50: −log10 of the molar value. Values belong to the compound of their own block, whether it stands above or below them.

Assays:
XIAP-BIR3 = biological target: T1, XIAP-BIR3 (Homo sapiens, UniProt P98170); assay: XIAP-BIR3 fluorescence polarization binding assay; details: FP, probe AbuRPFK-5FAM (SM5F) 5 nM, XIAP-BIR3 40 nM, 60 min at 25° C.
T1 construct: XIAP-BIR3; purchased Reaction Biology APT-11-374
Description: (§1) IAPs are one main cause of cancer development and may result from overexpression of anti-apoptotic proteins. This protocol establishes three binding assays for […] Bir3 domain, cIAP1 and cIAP2 using FP (fluorescence polariation) technology. The fluorescence probe used is a synthetic peptide conjugated to 5-carboxyfluorescein (AbuRPFK-5FAM). The fluorescence polarization value (mP) was detected by Envision, which was used to reflect the binding degree of protein and fluorescent marker.
(§2) • a. Prepare 100 times of the final cpd concentration in appropriate tube and transfer 5 uL cpd to 45 μL 1× reaction buffer with 10% DMSO • b. The final reference cpd concentration is 10000, 3333.3, 1111.1, 370.4, 123.4, 41.2, 13.7, 4.57, 1.52, 0.51, 0.17 and 0 nM. So the 100 times of the concentration is 1000, 333.3, 111.1, 37.04, 12.34, 4.12, […], 0.15, 0.05, 0.017 and 0 μM. The final test cpds concentration is 3333.3, 1111.1, 370.4, 123.4, 41.2, 13.7, 4.57, 1.52, 0.51, 0.17, 0.057 and 0 nM. So the 100 times of the concentration is 333.3, 111.1, 37.04, 12.34, 4.12, […], 0.15, 0.05, 0.017, 0.0057 and […] • c. Add 8 μL/well each dose enzyme to 384 wen microplate (ProxiPlate-384 F Plus, 6008260) using multichannel pipette, prepared in Table 3. • d. Centrifuge at 1000 rpm • e. Add 2 μL/well cpd to 384 well microplate (ProxiPlate-384 F Plus, 6008260) using multichannel pipette, prepared in step a). • f. Centrifuge at 1000 rpm RT, 15 min. • g Start the assay by adding 10 uL/well substrate (prepared in Table 4) to the same 384 wen microplate using multichannel pipette. • h. Centrifuge at 1000 rpm. • i. Cover the assay plate and incubate for 60 min at 25° C. • j. Read on Envision 2104 for mP and plot the IC50s with mP values. • k. Data analysis: IC50s were determined based on a non-linear regression analysis of data collected.

cIAP1-BIR3 = biological target: T2, cIAP1-BIR3 (Homo sapiens, UniProt Q13490); assay: cIAP1-BIR3 fluorescence polarization binding assay; details: FP, probe AbuRPFK-5FAM (SM5F) 5 nM, cIAP1-BIR3 15 nM, 60 min at 25° C.
T2 construct: cIAP1-BIR3; purchased Reaction Biology APT-11-370
Description: as §1, §2

cIAP2-BIR3 = biological target: T3, cIAP2-BIR3 (Homo sapiens, UniProt Q13489); assay: cIAP2-BIR3 fluorescence polarization binding assay; details: FP, probe AbuRPFK-5FAM (SM5F) 5 nM, cIAP2-BIR3 80 nM, 60 min at 25° C.
T3 construct: cIAP2-BIR3; purchased Reaction Biology APT-11-372
Description: as §1, §2

T3 sequence (Q13489 238-349 limits assumed): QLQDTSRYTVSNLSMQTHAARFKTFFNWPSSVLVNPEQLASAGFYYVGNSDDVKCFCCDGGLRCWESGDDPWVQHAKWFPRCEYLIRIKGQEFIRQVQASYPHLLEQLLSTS
T2 sequence (Q13490 253-363 limits assumed): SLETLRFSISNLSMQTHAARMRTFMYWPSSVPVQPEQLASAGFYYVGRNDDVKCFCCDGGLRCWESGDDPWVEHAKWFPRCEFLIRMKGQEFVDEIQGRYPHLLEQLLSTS
T1 sequence (P98170 241-356 limits assumed): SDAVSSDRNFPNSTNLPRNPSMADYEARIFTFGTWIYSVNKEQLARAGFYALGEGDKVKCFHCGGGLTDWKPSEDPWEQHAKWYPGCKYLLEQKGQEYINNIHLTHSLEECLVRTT

SMILES: CC[C@H](NC(=O)[C@H](C)NC)C(=O)N1CCC[C@H]1C(=O)N[C@@H]1CCOc2c(-c3cccc4c3OCC[C@H]4NC(=O)[C@@H]3CCCN3C(=O)[C@H](CC)NC(=O)[C@H](C)NC)cccc21 [Compound V-B, (2S)-1-[(2S)-2-[(2S)-2-(methylamino)propanamido]butanoyl]-N-[1(4R)-8-[(4R)-4-[(2S)-1-[(2S)-2-[(2S)-2-(methylamino)propanamido]butanoyl]pyrrolidine-2-amido]-3,4-dihydro-2H-1-benzopyran-8-yl]-3,4-dihydro-2H-1-benzopyran-4-yl]pyrrolidine-2-carboxamide]
pIC50 (XIAP-BIR3): 7.00 to 8.00 | pIC50 (cIAP1-BIR3): 8.00 to 9.00 | pIC50 (cIAP2-BIR3): 7.00 to 8.00

SMILES: CN[C@@H](C)C(=O)N[C@H](C(=O)N1CCC[C@H]1C(=O)N[C@@H]1CCOc2c(-c3cccc4c3OCC[C@H]4NC(=O)[C@@H]3CCCN3C(=O)[C@@H](NC(=O)[C@H](C)NC)C(C)C)cccc21)C(C)C [Compound V-C, (2S)-1-[(2S)-3-methyl-2-[(2S)-2-(methylamino)propanamido]butanoyl]-N-[(4R)-8-[(4R)-4-[(2S)-1-[(2S)-3-methyl-2-[(2S)-2-(methylamino)propanamido]butanoyl]pyrrolidine-2-amido]-3,4-dihydro-2H-1-benzopyran-8-yl]-3,4-dihydro-2H-1-benzopyran-4-yl]pyrrolidine-2-carboxamide]
pIC50 (XIAP-BIR3): 7.00 to 8.00 | pIC50 (cIAP1-BIR3): 8.00 to 9.00 | pIC50 (cIAP2-BIR3): 7.00 to 8.00

SMILES: CC[C@H](NC(=O)[C@H](C)NC)C(=O)N1CCC[C@H]1C(=O)N[C@@H]1CCCc2c(-c3cccc4c3CCC[C@H]4NC(=O)[C@@H]3CCCN3C(=O)[C@H](CC)NC(=O)[C@H](C)NC)cccc21 [V-I, (2S)-1-[(2S)-2-[(2S)-2-(methylamino)propanamido]butanoyl]-N-[1(5R,5′R)-5′-[(2S)-1-[(2S)-2-[(2S)-2-(methylamino)propanamido]butanoyl]pyrrolidine-2-amido]-5H,5′H,6H,6′H,7H,7′H,8H,8′H-[1,1′-binaphthalen]-5-yl]pyrrolidine-2-carboxamide; Bis(Formic Acid)]
pIC50 (XIAP-BIR3): 7.00 to 8.00 | pIC50 (cIAP1-BIR3): 8.00 to 9.00 | pIC50 (cIAP2-BIR3): 8.00 to 9.00

SMILES: CN[C@@H](C)C(=O)N[C@H](C(=O)N1CCC[C@H]1C(=O)N[C@@H]1CCCc2c(OCCOCCOc3cccc4c3CCC[C@H]4NC(=O)[C@@H]3CCCN3C(=O)[C@@H](NC(=O)[C@H](C)NC)C(C)C)cccc21)C(C)C [Compound II-A, (2S)-1-[(2S)-3-Methyl-2-[(2S)-2-(methylamino)propanamido]butanoyl]-N-[(1R)-5-[2-(2-{[(5R)-5-[(2S)-1-[(2S)-3-methyl-2-[(2S)-2-(methylamino)propanamido]butanoyl]pyrrolidine-2-amido]-5,6,7,8-tetrahydronaphthalen-1-yl]oxy}ethoxy)ethoxy]-1,2,3,4-tetrahydronaphthalen-1-yl]pyrrolidine-2-carboxamide]
pIC50 (XIAP-BIR3): 6.00 to 7.00 | pIC50 (cIAP1-BIR3): 8.00 to 9.00 | pIC50 (cIAP2-BIR3): 8.00 to 9.00

The remaining lines, values ahead:

pIC50 (XIAP-BIR3): 7.00 to 8.00 | pIC50 (cIAP1-BIR3): 8.00 to 9.00 | pIC50 (cIAP2-BIR3): 7.00 to 8.00
SMILES: CN[C@@H](C)C(=O)N[C@H](C(=O)N1CCC[C@H]1C(=O)N[C@@H]1CCCc2c(-c3ccc(-c4cccc5c4CCC[C@H]5NC(=O)[C@@H]4CCCN4C(=O)[C@@H](NC(=O)[C@H](C)NC)C4CCCCC4)cc3)cccc21)C1CCCCC1 [Compound III, (2S)-1-[(2S)-2-Cyclohexyl-2-[(2S)-2-(methylamino)propanamido]acetyl]-N-[(1R)-5-[4-[(5R)-5-[(2S)-1-[(2S)-2-cyclohexyl-2-[(2S)-2-(methylamino)propanamido]acetyl]pyrrolidine-2-amido]-5,6,7,8-tetrahydronaphthalen-1-yl]phenyl]-1,2,3,4-tetrahydronaphthalen-1-yl]pyrrolidine-2-carboxamide]

pIC50 (XIAP-BIR3): 7.00 to 8.00 | pIC50 (cIAP1-BIR3): 8.00 to 9.00 | pIC50 (cIAP2-BIR3): 7.00 to 8.00
SMILES: CN[C@@H](C)C(=O)N[C@H](C(=O)N1CCC[C@H]1C(=O)N[C@@H]1CCc2c(-c3cccc4c3CC[C@H]4NC(=O)[C@@H]3CCCN3C(=O)[C@@H](NC(=O)[C@H](C)NC)C3CCOCC3)cccc21)C1CCOCC1 [Compound V-R, (S)-1-((S)-2-((S)-2-(methylamino)propanamido)-2-(tetrahydro-2H-pyran-4-yl)acetyl)-N-((1R,1′R)-1′-((S)-1-((S)-2-((S)-2-(methylamino)propanamido)-2-(tetrahydro-2H-pyran-4-yl)acetyl)pyrrolidine-2-carboxamido)-2,2′,3,3′-tetrahydro-1H,1′H-[4,4′-biinden]-1-yl)pyrrolidine-2-carboxamide]

pIC50 (XIAP-BIR3): 7.00 to 8.00 | pIC50 (cIAP1-BIR3): 8.00 to 9.00 | pIC50 (cIAP2-BIR3): 7.00 to 8.00
SMILES: CN[C@@H](C)C(=O)N[C@H](C(=O)N1CCC[C@H]1C(=O)N[C@@H]1CCOc2c(-c3cccc4c3OCC[C@H]4NC(=O)[C@@H]3CCCN3C(=O)[C@@H](NC(=O)[C@H](C)NC)C3CCCCC3)cccc21)C1CCCCC1 [Compound V-P, (S)-1-((S)-2-cyclohexyl-2-((S)-2-(methylamino)propanamido)acetyl)-N-((4R,4′R)-4′-((S)-1-((S)-2-cyclohexyl-2-((S)-2-(methylamino)propanamido)acetyl)pyrrolidine-2-carboxamido)-[8,8′-bichroman]-4-yl)pyrrolidine-2-carboxamide]

pIC50 (XIAP-BIR3): 7.00 to 8.00 | pIC50 (cIAP1-BIR3): 8.00 to 9.00 | pIC50 (cIAP2-BIR3): 8.00 to 9.00
SMILES: CN[C@@H](C)C(=O)N[C@H](C(=O)N1CCC[C@H]1C(=O)N[C@@H]1CCCc2c(NC(=O)c3cccc4c3CCC[C@H]4NC(=O)[C@@H]3CCCN3C(=O)[C@@H](NC(=O)[C@H](C)NC)C3CCCCC3)cccc21)C1CCCCC1 [Compound VII, (S)-1-((S)-2-Cyclohexyl-2-((S)-2-(methylamino)propanamido)acetyl)-N—((R)-5-(((R)-5-((S)-1-((S)-2-cyclohexyl-2-((S)-2-(methylamino)propanamido)acetyl)pyrrolidine-2-carboxamido)-5,6,7,8-tetrahydronaphthalen-1-yl)carbamoyl)-1,2,3,4-tetrahydronaphthalen-1-yl)pyrrolidine-2-carboxamide]

pIC50 (XIAP-BIR3): 7.00 to 8.00 | pIC50 (cIAP1-BIR3): 8.00 to 9.00 | pIC50 (cIAP2-BIR3): 7.00 to 8.00
SMILES: CN[C@@H](C)C(=O)N[C@H](C(=O)N1CCC[C@H]1C(=O)N[C@@H]1CCCc2c(Nc3cccc4c3CCC[C@H]4NC(=O)[C@@H]3CCCN3C(=O)[C@@H](NC(=O)[C@H](C)NC)C3CCCCC3)cccc21)C1CCCCC1 [Compound VI, (S)-1-((S)-2-cyclohexyl-2-((S)-2-(methylamino)propanamido)acetyl)-N—((R)-5-(((R)-5-((S)-1-((S)-2-cyclohexyl-2-((S)-2-(methylamino)propanamido)acetyl)pyrrolidine-2-carboxamido)-5,6,7,8-tetrahydronaphthalen-1-yl)amino)-1,2,3,4-tetrahydronaphthalen-1-yl)pyrrolidine-2-carboxamide]

pIC50 (XIAP-BIR3): < 6.00 | pIC50 (cIAP1-BIR3): 7.00 to 8.00 | pIC50 (cIAP2-BIR3): 6.00 to 7.00
SMILES: CN[C@@H](C)C(=O)N[C@H](C(=O)N1CCC[C@H]1C(=O)N[C@@H]1CCCc2ccc(N3CCN(c4ccc5c(c4)[C@H](NC(=O)[C@@H]4CCCN4C(=O)[C@@H](NC(=O)[C@H](C)NC)C4CCCCC4)CCC5)CC3)cc21)C1CCCCC1 [VIII-A, (2S)-1-[(2S)-2-cyclohexyl-2-[(2S)-2-(methylamino)propanamido]acetyl]-N-[(1R)-7-[4-[(8R)-8-[(2S)-1-[(2S)-2-cyclohexyl-2-[(2S)-2-(methylamino)propanamido]acetyl]pyrrolidine-2-amido]-5,6,7,8-tetrahydronaphthalen-2-yl]piperazin-1-yl]-1,2,3,4-tetrahydronaphthalen-1-yl]pyrrolidine-2-carboxamide]
